Data set [1] in a line: Half life in C57 mouse at 10 mg/kg, po. It is filed as ADME, organism-based. Further details: dose 10 mg/kg, route oral. The note with it: in vivo.
Data set [2] in a line: Cmax in C57 mouse at 10 mg/kg, po. The note with it: in vivo. In kind it is ADME, organism-based. Further details: dose 10 mg/kg, route oral.
For data set [3], the target named is T1, Peroxisome proliferator-activated receptor delta (Homo sapiens) (UniProt Q03181).
T1 sequence (whole entry): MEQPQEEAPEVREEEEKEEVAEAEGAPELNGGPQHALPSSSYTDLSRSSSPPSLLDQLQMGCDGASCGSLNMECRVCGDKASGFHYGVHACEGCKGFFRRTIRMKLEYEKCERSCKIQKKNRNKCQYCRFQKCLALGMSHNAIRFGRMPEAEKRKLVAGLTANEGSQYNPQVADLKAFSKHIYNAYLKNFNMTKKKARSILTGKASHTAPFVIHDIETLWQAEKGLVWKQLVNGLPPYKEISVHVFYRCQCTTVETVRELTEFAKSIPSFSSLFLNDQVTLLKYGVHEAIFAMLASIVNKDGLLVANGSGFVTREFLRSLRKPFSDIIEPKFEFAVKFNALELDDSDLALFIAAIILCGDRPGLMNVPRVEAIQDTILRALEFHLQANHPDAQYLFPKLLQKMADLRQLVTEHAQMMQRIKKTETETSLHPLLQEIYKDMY
Nature of the data set: Binding affinity to PPARdelta.

In data set [4] the target is T2, Bile acid receptor (Homo sapiens) (UniProt Q96RI1).
T2 sequence (whole entry): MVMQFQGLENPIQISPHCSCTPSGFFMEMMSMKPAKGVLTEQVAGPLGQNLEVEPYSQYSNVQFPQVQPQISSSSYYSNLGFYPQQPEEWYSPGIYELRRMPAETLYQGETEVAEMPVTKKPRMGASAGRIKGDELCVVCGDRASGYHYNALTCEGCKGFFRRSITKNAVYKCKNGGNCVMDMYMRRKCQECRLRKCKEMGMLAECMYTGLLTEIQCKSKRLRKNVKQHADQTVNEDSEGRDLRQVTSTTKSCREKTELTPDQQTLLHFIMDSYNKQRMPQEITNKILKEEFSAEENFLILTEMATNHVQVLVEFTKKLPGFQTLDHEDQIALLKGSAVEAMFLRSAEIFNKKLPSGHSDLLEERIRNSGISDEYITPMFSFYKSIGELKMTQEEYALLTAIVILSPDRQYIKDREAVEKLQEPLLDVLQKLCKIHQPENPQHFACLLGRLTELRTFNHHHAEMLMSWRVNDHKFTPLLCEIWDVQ
Nature of the data set: Binding affinity to FXR.

The target of data set [5] is T3, Androgen receptor (Homo sapiens) (UniProt P10275).
T3 sequence (whole entry): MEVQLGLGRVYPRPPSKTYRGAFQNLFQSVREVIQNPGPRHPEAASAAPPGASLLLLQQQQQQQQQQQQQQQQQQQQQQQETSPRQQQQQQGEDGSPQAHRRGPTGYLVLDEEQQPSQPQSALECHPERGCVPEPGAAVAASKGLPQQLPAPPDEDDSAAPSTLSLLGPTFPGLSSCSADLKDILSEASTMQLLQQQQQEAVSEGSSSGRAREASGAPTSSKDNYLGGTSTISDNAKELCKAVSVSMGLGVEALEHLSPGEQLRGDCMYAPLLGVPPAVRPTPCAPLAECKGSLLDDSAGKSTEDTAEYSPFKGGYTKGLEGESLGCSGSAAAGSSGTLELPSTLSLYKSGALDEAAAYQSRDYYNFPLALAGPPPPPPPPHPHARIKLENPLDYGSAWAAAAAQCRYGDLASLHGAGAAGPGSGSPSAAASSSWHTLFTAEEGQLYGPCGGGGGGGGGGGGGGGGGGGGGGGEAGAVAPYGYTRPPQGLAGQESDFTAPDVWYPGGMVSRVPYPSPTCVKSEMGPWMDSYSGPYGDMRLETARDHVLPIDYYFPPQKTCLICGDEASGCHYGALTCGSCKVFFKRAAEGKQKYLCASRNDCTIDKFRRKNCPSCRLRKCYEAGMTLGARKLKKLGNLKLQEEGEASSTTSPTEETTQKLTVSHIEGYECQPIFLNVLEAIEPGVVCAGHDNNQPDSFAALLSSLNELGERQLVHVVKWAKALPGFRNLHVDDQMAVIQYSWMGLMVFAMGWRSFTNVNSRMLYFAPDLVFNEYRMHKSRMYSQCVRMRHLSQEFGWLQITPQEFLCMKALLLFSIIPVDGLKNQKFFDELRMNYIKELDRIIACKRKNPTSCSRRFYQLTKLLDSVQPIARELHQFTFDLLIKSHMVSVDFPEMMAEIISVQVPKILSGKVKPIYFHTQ
Nature of the data set: Binding affinity to androgen receptor.

In data set [6] the target is T4, Estrogen receptor (Homo sapiens) (UniProt P03372).
T4 sequence (whole entry): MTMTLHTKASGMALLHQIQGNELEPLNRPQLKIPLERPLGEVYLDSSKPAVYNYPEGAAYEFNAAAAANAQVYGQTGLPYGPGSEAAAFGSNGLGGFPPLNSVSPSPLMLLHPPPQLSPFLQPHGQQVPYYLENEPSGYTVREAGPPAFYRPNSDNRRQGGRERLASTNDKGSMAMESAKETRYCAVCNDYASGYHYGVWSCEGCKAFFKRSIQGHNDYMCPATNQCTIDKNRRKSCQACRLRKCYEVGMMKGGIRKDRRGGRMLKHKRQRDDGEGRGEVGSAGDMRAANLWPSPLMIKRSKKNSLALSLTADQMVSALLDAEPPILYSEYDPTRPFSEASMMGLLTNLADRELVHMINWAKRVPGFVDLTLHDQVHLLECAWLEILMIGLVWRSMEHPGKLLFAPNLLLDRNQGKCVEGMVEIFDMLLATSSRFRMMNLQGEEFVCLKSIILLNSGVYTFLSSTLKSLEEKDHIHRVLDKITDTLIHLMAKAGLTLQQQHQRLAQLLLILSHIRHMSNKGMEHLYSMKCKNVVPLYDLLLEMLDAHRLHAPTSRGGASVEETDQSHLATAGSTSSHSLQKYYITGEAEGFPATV
Nature of the data set: Binding affinity to estrogen receptor.

The subject of data set [7] is Mus musculus. Description: Antiatherosclerotic activity against high fat/high cholesterol fed LDLR-deficient mouse assessed as reduction in aortic arch lesion burden at 3 mg/kg/day administered with diet relative to control. It is filed as functional, Pharyngeal arch artery. On the set-up: scale not given: the % may be the effect or the level left.
Data set [8] concerns the target T5, Oxysterols receptor LXR-beta (Homo sapiens, UniProt P55055). Nature of the data set: Displacement of [3H]T0901317 from human LXRbeta ligand binding domain. For orientation: Loss of bound radioactivity is the signal in a displacement assay; it reports binding, not function.
Data set [9] addresses T5, Oxysterols receptor LXR-beta.
Data set [10] concerns the target T6, Oxysterols receptor LXR-alpha (Homo sapiens, UniProt Q13133).
In data set [11] the target is T6, Oxysterols receptor LXR-alpha. This is another data set of the same source.
A further data set has as its system THP-1. Description: Induction of [3H]cholesterol efflux in human THP1 cells.
The test system of data set [12] is Mus musculus. Nature of the data set: Antiatherosclerotic activity against high fat/high cholesterol fed LDLR-deficient mouse assessed as ldlr gene regulation at 0.6 mg/kg administered with diet for 7 days by Experion chip analysis. On the set-up: dose 0.6 mg/kg. In kind it is functional, organism-based.
Data set [13] relates to Mus musculus. Nature of the data set: Antiatherosclerotic activity against high fat/high cholesterol fed LDLR-deficient mouse assessed as Lipc gene regulation at 0.6 mg/kg administered with diet for 7 days by Experion chip analysis. It is filed as functional, organism-based. On the set-up: dose 0.6 mg/kg.

Results on two compounds are retold here after ChEMBL document CHEMBL1156230, “Identification of phenylsulfone-substituted quinoxaline (WYE-672) as a tissue selective liver X-receptor (LXR) agonist” (J Med Chem, 2010).

SMILES strings stand for the structures. pEC50, pIC50: −log10 of the molar value. Calls of active or inactive are those of the source. The calls are words filed in the database; no cut-off is given here.

T6 sequence (Q13133 whole entry, looked up): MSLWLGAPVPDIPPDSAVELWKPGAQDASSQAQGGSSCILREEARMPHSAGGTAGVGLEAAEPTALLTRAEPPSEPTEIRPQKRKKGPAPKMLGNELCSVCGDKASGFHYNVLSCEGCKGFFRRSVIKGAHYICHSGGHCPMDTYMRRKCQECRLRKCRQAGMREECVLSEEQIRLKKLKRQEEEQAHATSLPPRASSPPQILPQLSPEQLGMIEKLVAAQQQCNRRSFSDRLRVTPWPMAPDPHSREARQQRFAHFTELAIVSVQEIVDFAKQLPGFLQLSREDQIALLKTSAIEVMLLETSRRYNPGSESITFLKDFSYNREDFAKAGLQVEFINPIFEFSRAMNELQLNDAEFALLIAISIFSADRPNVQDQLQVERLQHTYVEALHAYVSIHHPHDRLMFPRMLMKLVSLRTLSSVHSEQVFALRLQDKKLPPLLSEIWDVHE
T5 sequence (P55055 whole entry, the tested form may be a part): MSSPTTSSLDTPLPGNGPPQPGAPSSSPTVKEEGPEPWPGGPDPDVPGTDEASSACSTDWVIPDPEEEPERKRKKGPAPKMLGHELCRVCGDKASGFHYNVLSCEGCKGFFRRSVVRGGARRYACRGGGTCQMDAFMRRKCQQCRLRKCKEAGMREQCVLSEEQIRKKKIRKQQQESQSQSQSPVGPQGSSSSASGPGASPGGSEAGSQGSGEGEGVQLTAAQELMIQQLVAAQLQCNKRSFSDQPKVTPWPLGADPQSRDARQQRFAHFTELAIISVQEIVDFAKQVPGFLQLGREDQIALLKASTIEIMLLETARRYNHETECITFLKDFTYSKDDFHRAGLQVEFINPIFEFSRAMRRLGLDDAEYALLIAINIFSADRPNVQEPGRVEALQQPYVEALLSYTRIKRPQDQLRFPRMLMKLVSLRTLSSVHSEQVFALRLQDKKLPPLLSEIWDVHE

By half-life is commonly meant how long it takes for the measured level to halve. As a reminder, the Cmax is the maximum level reached in the sampled fluid or tissue. One may read the pIC50 as the IC50 on a negative log10 scale, so that one unit is a factor of ten. As usually defined, the pEC50 is the EC50 on a negative log10 scale, so that one unit is a factor of ten. Turning to `Cc1nc2c(C(F)(F)F)cccc2nc1-c1ccc(-c2cccc(S(C)(=O)=O)c2)cc1`, the half-life in data set [1] is over 20 h. In data set [2], the Cmax was 229 ng/mL. Also, the outcome in data set [3], in data set [4], in data set [5] and in data set [6] was inactive. The Activity was 51% with Mus musculus [7] and “Dose-dependent effect” in the data set with THP-1. Also, the pIC50 in data set [8] was 7.28. For the same compound, the pEC50 in data set [9] is under 6.00; in [10], 5.77; in data set [11], under 6.00.
Turning to `O=C(O)Cc1cccc(OCCCN(Cc2cccc(C(F)(F)F)c2Cl)CC(c2ccccc2)c2ccccc2)c1`, the outcome in the data set on Mus musculus [12] and with Mus musculus [13] was Active.
